US9567336B2, “Conjugated TLR7 and/or TLR8 and TLR2 agonists” (CAYLA, priority 2012, dated 2017)

What was measured:
human TLR2 = target: T1, human TLR2 (Homo sapiens, UniProt O60603); test: HEK-Blue hTLR2 NF-κB/AP-1 SEAP reporter cell assay; assay type: cell-based; conditions: HEK-Blue hTLR2 reporter cells, 10 μg/mL to 10 pg/ml, 24 hours, OD at 655 nm; FIGS. 3A, 3B
T1 construct: host or cells: HEK293 (HEK-Blue hTLR2)
Description: (§1) Some conjugated compounds of the invention were tested for their ability to activate TLR7 and TLR2 receptor signaling. Cell-based assays were carried out using TLR7 and TLR2 reporter cell lines (InvivoGen). The reporter cell lines are engineered HEK293 cells, a human embryonic kidney cell line (ATCC, CRL-1573) that stably express either murine TLR7 (HEK-Blue™ mTLR7) or human TLR7 (HEK-Blue™ hTLR7) or murine TLR2 (HEK-Blue™ mTLR2) or human TLR2 (HEK-Blue™ hTLR2) with an NF-κB-inducible secreted embryonic alkaline phosphatase (SEAP) as the reporter gene. The SEAP reporter gene is placed under the control of the NF-κB and AP-inducible promoter. Stimulation with the corresponding TLR ligand activates NF-κB and AP-1, which induces the production of SEAP. Detection of SEAP is measured following culturing cells in HEK-Blue™ Detection media (InvivoGen). HEK-Blue™ Detection contains a SEAP substrate, which upon hydrolysis by SEAP produces a colorimetric change allowing for detection of SEAP as the protein is secreted. […] These assays were carried out using RAW-Blue™ Cells (InvivoGen), derived from RAW 264.7 mouse leukemic monocytic macrophage cell line (ATCC, CRL 2278) stably overexpressing a NF-κB/AP-1 inducible SEAP reporter constructs.
(§2) To perform the assay, cells were seeded on 96 well microliter plates at 50,000 or 100,000 cells per well for HEK-Blue™ Cells and RAW-Blue™ Cells respectively, and cultured at 37° C. in the presence of the conjugated compounds. The conjugated compounds were prepared as follows: First, stock solutions of the small molecule conjugated compounds of the invention were prepared in ethanol or water to a concentration of 10 mg/ml. A working dilution of the conjugated TLR7-TLR2 small molecules was made up in water and added to cells at a final range of concentrations from 10 μg/mL to 10 pg/ml. The working dilutions of the conjugated TLR7-TLR2 small molecules as the stated concentrations were directly added to the reporter cell lines and incubated at 37° C. for 24 hours. After 24 hours of incubation, the effect on reporter gene activity was determined by reading the OD at 655 nm using iMark™ Microplate Reader (BIO-RAD).
(§3) The conjugated compounds were tested alone for their ability to specifically activate TLR7 and TLR2, alongside the known TLR7 activators R848 or CL264 (InvivoGen) and the TLR2 agonists Pam2CSK4 or Pam3CSK4 (InvivoGen). The specificity of the TLR activity was determined by use of reporter cell lines to the other TLRs (data not shown). […] The molecules show a tendency to activate mouse TLR7 with greater sensitivity than human TLR7. […] Furthermore, dose-dependent responses of the conjugated compounds indicate significant TLR activities of TLR7 and TLR2 compared to the corresponding controls.

murine TLR7 = target: T2, murine TLR7 (Mus musculus, UniProt P58681); test: HEK-Blue mTLR7 NF-κB/AP-1 SEAP reporter cell assay; assay type: cell-based; conditions: HEK-Blue mTLR7 reporter cells, 10 μg/mL to 10 pg/ml, 24 hours, OD at 655 nm; FIGS. 2A, 2B
T2 construct: host or cells: HEK293 (HEK-Blue mTLR7)
T2 sequence (P58681 27-1050): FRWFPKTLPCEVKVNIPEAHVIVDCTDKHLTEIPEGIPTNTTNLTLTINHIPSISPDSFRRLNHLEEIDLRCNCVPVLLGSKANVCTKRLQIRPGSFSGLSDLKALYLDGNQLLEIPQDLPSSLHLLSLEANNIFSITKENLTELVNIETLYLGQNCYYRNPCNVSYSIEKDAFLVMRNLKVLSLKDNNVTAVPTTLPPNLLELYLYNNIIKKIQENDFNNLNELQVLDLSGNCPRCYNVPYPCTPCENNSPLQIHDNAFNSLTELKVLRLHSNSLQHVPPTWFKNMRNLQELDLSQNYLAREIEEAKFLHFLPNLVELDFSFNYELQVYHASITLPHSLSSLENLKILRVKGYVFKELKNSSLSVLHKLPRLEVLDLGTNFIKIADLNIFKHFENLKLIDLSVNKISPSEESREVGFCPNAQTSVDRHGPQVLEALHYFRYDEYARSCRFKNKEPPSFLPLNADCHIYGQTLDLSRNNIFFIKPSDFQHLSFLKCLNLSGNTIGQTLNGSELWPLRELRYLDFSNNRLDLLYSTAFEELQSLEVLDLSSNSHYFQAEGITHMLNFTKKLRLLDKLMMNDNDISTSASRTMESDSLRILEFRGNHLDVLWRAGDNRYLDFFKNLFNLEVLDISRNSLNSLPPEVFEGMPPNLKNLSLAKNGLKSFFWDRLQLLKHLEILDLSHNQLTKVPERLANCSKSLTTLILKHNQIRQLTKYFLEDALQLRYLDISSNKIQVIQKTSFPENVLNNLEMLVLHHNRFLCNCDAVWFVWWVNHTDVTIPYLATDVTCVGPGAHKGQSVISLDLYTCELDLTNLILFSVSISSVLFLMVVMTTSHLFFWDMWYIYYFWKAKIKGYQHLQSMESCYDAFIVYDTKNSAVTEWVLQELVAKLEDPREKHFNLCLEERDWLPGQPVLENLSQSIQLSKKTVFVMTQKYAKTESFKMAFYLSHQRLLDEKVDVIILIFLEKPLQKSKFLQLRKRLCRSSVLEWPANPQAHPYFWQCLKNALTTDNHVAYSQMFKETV
Description: as §1, §2, §3

murine TLR2 = target: T3, murine TLR2 (Mus musculus, UniProt Q9QUN7); test: HEK-Blue mTLR2 NF-κB/AP-1 SEAP reporter cell assay; assay type: cell-based; conditions: HEK-Blue mTLR2 reporter cells, 10 μg/mL to 10 pg/ml, 24 hours, OD at 655 nm; FIG. 4
T3 construct: host or cells: HEK293 (HEK-Blue mTLR2)
Description: as §1, §2, §3

[1] = tested on: NF-κB in RAW-Blue™ Cells (RAW 264.7, endogenous TLR7 and TLR2); test: RAW-Blue Cells NF-κB/AP-1 inducible SEAP reporter assay; assay type: cell-based, mouse; conditions: murine monocytic macrophage cell line RAW 264.7, 24 hours, OD at 655 nm; FIGS. 5A, 5B
Description: as §1, §2, §3

T3 sequence (Q9QUN7 25-784): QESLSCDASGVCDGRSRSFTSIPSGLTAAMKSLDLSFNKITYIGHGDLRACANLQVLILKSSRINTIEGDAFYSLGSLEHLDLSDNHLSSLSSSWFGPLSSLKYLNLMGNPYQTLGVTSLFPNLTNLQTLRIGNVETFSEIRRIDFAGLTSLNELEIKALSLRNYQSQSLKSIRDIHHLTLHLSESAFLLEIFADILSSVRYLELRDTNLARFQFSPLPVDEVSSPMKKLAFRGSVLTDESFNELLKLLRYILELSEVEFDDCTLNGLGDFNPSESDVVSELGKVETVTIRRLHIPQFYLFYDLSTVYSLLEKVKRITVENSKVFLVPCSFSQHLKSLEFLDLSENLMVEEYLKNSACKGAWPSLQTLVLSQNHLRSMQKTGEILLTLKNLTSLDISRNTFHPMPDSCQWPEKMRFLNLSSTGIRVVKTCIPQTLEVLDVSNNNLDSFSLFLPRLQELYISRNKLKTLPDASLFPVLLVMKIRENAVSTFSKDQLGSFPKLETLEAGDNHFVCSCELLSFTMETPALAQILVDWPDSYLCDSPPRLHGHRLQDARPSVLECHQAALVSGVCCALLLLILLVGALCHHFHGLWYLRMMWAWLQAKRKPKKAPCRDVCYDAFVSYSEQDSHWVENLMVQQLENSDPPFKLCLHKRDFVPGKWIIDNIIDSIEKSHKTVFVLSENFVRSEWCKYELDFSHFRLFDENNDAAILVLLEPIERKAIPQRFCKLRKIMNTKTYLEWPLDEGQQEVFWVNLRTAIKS
T1 sequence (O60603 21-784): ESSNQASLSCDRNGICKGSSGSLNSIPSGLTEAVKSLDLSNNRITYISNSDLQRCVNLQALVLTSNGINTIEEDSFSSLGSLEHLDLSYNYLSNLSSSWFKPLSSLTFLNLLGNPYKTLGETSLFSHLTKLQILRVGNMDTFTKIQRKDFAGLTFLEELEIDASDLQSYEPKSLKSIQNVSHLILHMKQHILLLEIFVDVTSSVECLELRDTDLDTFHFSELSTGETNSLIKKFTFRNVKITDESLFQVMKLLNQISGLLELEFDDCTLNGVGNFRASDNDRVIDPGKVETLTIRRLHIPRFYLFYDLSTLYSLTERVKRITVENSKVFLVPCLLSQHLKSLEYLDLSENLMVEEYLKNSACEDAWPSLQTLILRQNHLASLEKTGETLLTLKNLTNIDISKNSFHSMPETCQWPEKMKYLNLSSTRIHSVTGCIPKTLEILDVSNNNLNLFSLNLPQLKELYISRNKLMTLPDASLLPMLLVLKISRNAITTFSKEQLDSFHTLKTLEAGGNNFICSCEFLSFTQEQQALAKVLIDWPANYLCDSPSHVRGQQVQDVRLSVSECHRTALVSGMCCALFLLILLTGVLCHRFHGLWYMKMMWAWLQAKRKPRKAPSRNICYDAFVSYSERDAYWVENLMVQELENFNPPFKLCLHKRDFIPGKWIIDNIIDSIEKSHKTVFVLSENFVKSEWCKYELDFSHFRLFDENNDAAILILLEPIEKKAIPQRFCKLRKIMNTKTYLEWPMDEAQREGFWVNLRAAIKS

Compound: CCCCCCCCCCCCCCCC(=O)OCC(CSC[C@H](N)C(=O)Nc1ccc(Cn2c(O)nc3c(N)nc(NCCCC)nc32)cc1)OC(=O)CCCCCCCCCCCCCCC (mixture of isomers) [CL401, (R)-3-(2-amino-3-(4-((6-amino-2-(butylamino)-8-hydroxy-9H-purin-9-yl)methyl)phenylamino)-3-oxopropylthio)propane-1,2-diyl dipalmitate]
- ability to activate TLR2 receptor (human TLR2) (human TLR2): activate TLR2 receptor
- ability to activate TLR7 receptors (murine TLR7) (murine TLR7): activate TLR7 receptors
- ability to activate TLR2 receptor (murine TLR2) (murine TLR2): activate TLR2 receptor
- induction of NF-κB in RAW-Blue cells [1]: activate NF-κB
